Data published in patent US20060069132A1, “Azolecarboxamide herbicides” (priority 2004, published 2006).

Key:
[1] = test system: barnyardgrass; test: Test B flooded paddy test; format: in vivo, Echinochloa crus-galli; conditions: 1000 g ai/ha, visual rating, scale 0 to 100 (0 no effect, 100 complete control), 13 to 15 days
Summary of the method: (§1)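 Paddy species grown to the 2-leaf stage under flooding; blackgrass sprayed postemergence at 2–18 cm (1- to 4-leaf stage). Plants kept in a greenhouse for 13 to 15 days, then visually rated against controls on 0 (no effect) to 100 (complete control).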

[2] = test system: wheat; test: Test B postemergence herbicide test; format: in vivo, Triticum aestivum; design: key to Wheat plant response rating: 0 = no effect, 100 = complete control; conditions: scale 0 (no effect) to 100 (complete control); for Wheat plant response rating: postemergence, visual rating
Summary of the method: (§2)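 Greenhouse test; postemergence application to plants at 1–4 leaves (2–18 cm); paddy species at 2 leaves; evaluated visually vs controls at 13–15 days; scale 0–100 (100 = complete control).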

[3] = test system: Surinam grass; test: Test B pre-/postemergence herbicide test; format: in vivo, Urochloa decumbens; conditions: for Surinam Grass plant response rating: postemergence
Summary of the method: (§3)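 Evaluation is visual, comparing treated with control plants on a scale where 0 means no effect and 100 means full control. Treatments were preemergence, or postemergence on seedlings 2–18 cm tall, and held 13–15 days in the greenhouse.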

[4] = test system: barnyardgrass; test: Test B pre-/postemergence herbicide test; format: in vivo, Echinochloa crus-galli; conditions: for Barnyardgrass plant response rating: postemergence
Summary of the method: (§4)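 Test chemicals in a non-phytotoxic solvent mixture with surfactant were applied preemergence to seeded species and postemergence to plants 2-18 cm tall (1- to 4-leaf stage); rice and barnyardgrass were also tested in a flooded paddy at the 2-leaf stage. Visual rating versus controls after 13-15 days in greenhouse, scale 0 (no effect) to 100 (complete control).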

[5] = test system: morningglory; test: Test B pre-/postemergence herbicide test; format: in vivo, Ipomoea coccinea; conditions: for Morningglory plant response rating: postemergence
Summary of the method: as §4

[6] = test system: cocklebur; test: Test B pre-/postemergence herbicide test; format: in vivo, Xanthium strumarium; conditions: for Cocklebur plant response rating: postemergence
Summary of the method: as §4

[7] = test system: lambsquarters; test: Test B pre-/postemergence herbicide test; format: in vivo, Chenopodium album; conditions: for Lambsquarters plant response rating: postemergence
Summary of the method: as §3

[8] = test system: giant foxtail; test: Test B pre-/postemergence herbicide test; format: in vivo, Setaria faberi; conditions: for Foxtail, Giant plant response rating: postemergence
Summary of the method: as §3

[9] = test system: small flower umbrella sedge; test: Test B flooded paddy test; format: in vivo, Cyperus difformis; conditions: 1000 g ai/ha, visual rating, scale 0 to 100 (0 no effect, 100 complete control), 13 to 15 days
Summary of the method: as §1

[10] = test system: rice; test: Test B pre-/postemergence herbicide test; format: in vivo, Oryza sativa; conditions: preemergence
Text: Seeds selected from barnyardgrass (Echinochloa crus-galli (L.) Beauv.), Surinam grass (Urochloa decumbens (Staph) R. D. Webster, previously named Brachiaria decumbens Stapf), cocklebur (Xanthium strumarium L.), corn (Zea mays L.), large crabgrass (Digitaria sanguinalis (L.) Scop.), giant foxtail (Setaria faberi Herim.), lambsquarters (Chenopodium album L.), morningglory (Ipomoea coccinea L.), pigweed (Amaranthus retroflexus L.), rice (Oryza sativa L.) and velvetleaf (Abutilon theophrasti Medik.) were planted and treated preemergence with test chemicals formulated in a non-phytotoxic solvent mixture which included a surfactant.
At the same time, plants selected from these crop and weed species and also blackgrass (Alopecurus myosuroides Huds.), wheat (Triticum aestivum L.) and wild oat (Avena fatua L.) were treated with postemergence applications of test chemicals formulated in the same manner. Plants ranged in height from 2 to 18 cm (1- to 4-leaf stage) for postemergence treatments. Plant species in the flooded paddy test consisted of rice (Oryza sativa L.), small flower umbrella sedge (Cyperus difformis L.), ducksalad (Heteranthera limosa (Sw.) Willd.) and barnyardgrass (Echinochloa crus-galli (L.) Beauv.) grown to the 2-leaf stage for testing. Treated plants and controls were maintained in a greenhouse for 13 to 15 days, after which time all species were compared to controls and visually evaluated. Plant response ratings, summarized in Table B, are based on a scale of 0 to 100 where 0 is no effect and 100 is complete control. A dash (-) response means no test result.

[11] = test system: rice; test: Test B flooded paddy test; format: in vivo, Oryza sativa; conditions: 1000 g ai/ha, visual rating, scale 0 to 100 (0 no effect, 100 complete control), 13 to 15 days
Summary of the method: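 Each value is a visual 0–100 response rating taken against controls 13 to 15 days after treatment in the greenhouse. Plants received formulated chemical postemergence at the 1- to 4-leaf stage or, in flooded paddy, at the 2-leaf stage.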

[12] = test system: velvetleaf; test: Test B pre-/postemergence herbicide test; format: in vivo, Abutilon theophrasti; conditions: for Velvetleaf plant response rating: postemergence
Summary of the method: as §3

[13] = test system: blackgrass; test: Test B postemergence herbicide test; format: in vivo, Alopecurus myosuroides; conditions: scale 0 (no effect) to 100 (complete control); for Blackgrass plant response rating: postemergence, visual rating
Summary of the method: as §1

[14] = test system: corn; test: Test B pre-/postemergence herbicide test; format: in vivo, Zea mays; conditions: for Corn plant response rating: postemergence
Summary of the method: as §3

[15] = test system: large crabgrass; test: Test B pre-/postemergence herbicide test; format: in vivo, Digitaria sanguinalis; conditions: for Crabgrass, Large plant response rating: postemergence
Summary of the method: as §3

[16] = test system: pigweed; test: Test B pre-/postemergence herbicide test; format: in vivo, Amaranthus retroflexus; conditions: for Pigweed plant response rating: postemergence
Summary of the method: as §3

[17] = test system: ducksalad; test: Test B flooded paddy test; format: in vivo, Heteranthera limosa; conditions: 1000 g ai/ha, visual rating, scale 0 to 100 (0 no effect, 100 complete control), 13 to 15 days
Summary of the method: as §1

[18] = test system: wild oat; test: Test B postemergence herbicide test; format: in vivo, Avena fatua; conditions: scale 0 (no effect) to 100 (complete control); for Oat, Wild plant response rating: postemergence, visual rating
Summary of the method: as §2

[19] = Postemergence, 500 g ai/ha, visual rating after 13 to 15 days
[20] = 500 g ai/ha, visual rating 0-100, 0 no effect, 100 complete control, preemergence
[21] = Postemergence, 500 g ai/ha, visual rating after 13 to 15 days, scale 0 (no effect) to 100 (complete control)
[22] = 125 g ai/ha, visual rating, scale 0 (no effect) to 100 (complete control)
[23] = preemergence, 125 g ai/ha, 0 to 100 scale, 0 is no effect, 100 is complete control
[24] = 125 g ai/ha, 0 = no effect, 100 = complete control, preemergence
[25] = 500 g ai/ha, visual rating, 0 = no effect, 100 = complete control, preemergence
[26] = 500 g ai/ha, visual rating, scale 0 (no effect) to 100 (complete control)

CCOC(=O)c1cc(NC(=O)c2cc(C(C)(C)C)nn2CC)ccc1C [Compound 99]
Barnyardgrass plant response rating [1]: 0 | Plant response rating, Wheat [2, 19]: 20 | Wheat plant response rating ([2]; 125 g ai/ha): 20 | Plant response rating, Surinam Grass [3, 20]: 30 | Plant response rating, Surinam Grass [3, 21]: 10 | Surinam Grass plant response rating [3, 22]: 10 | Plant response rating, Surinam Grass [3, 23]: 10 | Plant response rating, Barnyardgrass [4, 20]: 30 | Plant response rating, Barnyardgrass [4, 21]: 0 | Barnyardgrass plant response rating [4, 22]: 0 | Plant response rating, Barnyardgrass [4, 23]: 0 | Plant response rating, Morningglory [5, 20]: 0 | Plant response rating, Morningglory [5, 21]: 20 | Morningglory plant response rating [5, 22]: 0 | Plant response rating, Morningglory [5, 23]: 0 | Plant response rating, Cocklebur [6, 20]: 0 | Plant response rating, Cocklebur [6, 21]: 30 | Cocklebur plant response rating [6, 22]: 0 | Plant response rating, Cocklebur [6, 23]: 0 | Plant response rating, Lambsquarters [7, 20]: 20 | Plant response rating, Lambsquarters [7, 21]: 90 | Lambsquarters plant response rating [7, 22]: 70 | Plant response rating, Lambsquarters [7, 23]: 0 | Plant response rating, Foxtail, Giant [8, 20]: 20 | Plant response rating, Foxtail, Giant [8, 21]: 30 | Foxtail, Giant plant response rating [8, 22]: 10 | Plant response rating, Foxtail, Giant [8, 23]: 10 | Sedge, Umbrella plant response rating [9]: 40 | Plant response rating, Rice ([10]; 500 g ai/ha, visual rating 0-100, 0 no effect, 100 complete control): 0 | Plant response rating, Rice ([10]; 125 g ai/ha, 0 to 100 scale, 0 is no effect, 100 is complete control): 0 | Rice plant response rating [11]: 0 | Plant response rating, Velvetleaf [12, 20]: 20 | Plant response rating, Velvetleaf [12, 21]: 40 | Velvetleaf plant response rating [12, 22]: 20 | Plant response rating, Velvetleaf [12, 23]: 10 | Plant response rating, Blackgrass [13, 19]: 40 | Blackgrass plant response rating ([13]; 125 g ai/ha): 20 | Plant response rating, Corn [14, 20]: 0 | Plant response rating, Corn [14, 21]: 20 | Corn plant response rating [14, 22]: 10 | Plant response rating, Corn [14, 23]: 0 | Plant response rating, Crabgrass, Large [15, 20]: 70 | Plant response rating, Crabgrass, Large [15, 21]: 10 | Crabgrass, Large plant response rating [15, 22]: 10 | Plant response rating, Crabgrass, Large [15, 23]: 20 | Plant response rating, Pigweed [16, 21]: 70 | Pigweed plant response rating [16, 22]: 20 | Plant response rating, Pigweed [16, 23]: 0 | Ducksalad plant response rating [17]: 0 | Plant response rating, Oat, Wild [18, 19]: 40 | Oat, Wild plant response rating ([18]; 125 g ai/ha): 20

CCc1nc(C(C)(C)C)sc1C(=O)Nc1cc(C(=O)N(CC)CC)ccc1F [Compound 230]
Barnyardgrass plant response rating [1]: 50 | Wheat plant response rating ([2]; 125 g ai/ha): 10 | Wheat plant response rating ([2]; 500 g ai/ha): 20 | Surinam Grass plant response rating (0 to 100 scale) [3, 24]: 0 | Plant response rating, Surinam Grass [3, 25]: 10 | Surinam Grass plant response rating [3, 22]: 10 | Surinam Grass plant response rating [3, 26]: 10 | Barnyardgrass plant response rating (0 to 100 scale) [4, 24]: 10 | Plant response rating, Barnyardgrass [4, 25]: 50 | Barnyardgrass plant response rating [4, 22]: 0 | Barnyardgrass plant response rating [4, 26]: 20 | Morningglory plant response rating (0 to 100 scale) [5, 24]: 10 | Plant response rating, Morningglory [5, 25]: 10 | Morningglory plant response rating [5, 22]: 20 | Morningglory plant response rating [5, 26]: 70 | Cocklebur plant response rating (0 to 100 scale) [6, 24]: 0 | Plant response rating, Cocklebur [6, 25]: 0 | Cocklebur plant response rating [6, 22]: 0 | Cocklebur plant response rating [6, 26]: 10 | Lambsquarters plant response rating (0 to 100 scale) [7, 24]: 20 | Plant response rating, Lambsquarters [7, 25]: 90 | Lambsquarters plant response rating [7, 22]: 50 | Lambsquarters plant response rating [7, 26]: 60 | Foxtail, Giant plant response rating (0 to 100 scale) [8, 24]: 10 | Plant response rating, Foxtail, Giant [8, 25]: 80 | Foxtail, Giant plant response rating [8, 22]: 10 | Foxtail, Giant plant response rating [8, 26]: 20 | Rice plant response rating (0 to 100 scale) ([10]; 125 g ai/ha, 0 = no effect, 100 = complete control): 0 | Plant response rating, Rice ([10]; 500 g ai/ha, visual rating, 0 = no effect, 100 = complete control): 0 | Rice plant response rating [11]: 60 | Velvetleaf plant response rating (0 to 100 scale) [12, 24]: 10 | Plant response rating, Velvetleaf [12, 25]: 30 | Velvetleaf plant response rating [12, 22]: 20 | Velvetleaf plant response rating [12, 26]: 30 | Blackgrass plant response rating ([13]; 125 g ai/ha): 30 | Blackgrass plant response rating ([13]; 500 g ai/ha): 30 | Corn plant response rating (0 to 100 scale) [14, 24]: 0 | Plant response rating, Corn [14, 25]: 10 | Corn plant response rating [14, 22]: 10 | Corn plant response rating [14, 26]: 20 | Crabgrass, Large plant response rating (0 to 100 scale) [15, 24]: 20 | Plant response rating, Crabgrass, Large [15, 25]: 70 | Crabgrass, Large plant response rating [15, 22]: 10 | Crabgrass, Large plant response rating [15, 26]: 20 | Pigweed plant response rating (0 to 100 scale) [16, 24]: 40 | Plant response rating, Pigweed [16, 25]: 80 | Pigweed plant response rating [16, 22]: 40 | Pigweed plant response rating [16, 26]: 60 | Ducksalad plant response rating [17]: 60 | Oat, Wild plant response rating ([18]; 125 g ai/ha): 20 | Oat, Wild plant response rating ([18]; 500 g ai/ha): 40
